Test results from US9980943B2, “Methods of treating muscular dystrophy” (BOARD OF REGENTS OF THE NEVADA SYSTEM OF HIGHER EDUCATION, …, priority 2013, dated 2018).

Experiments:
Assay type in all cases: cell-based, mouse
[1] = tested on: α7 integrin (LacZ reporter in α7βgal+/− myoblasts); experiment: Myoblast α7+/LacZ integrin FDG assay (Burkin assay in myoblasts, 96-well); settings: α7+/LacZ myoblasts, 96-well
[2] = tested on: α7 integrin (LacZ reporter in α7+/LacZ myotubes); experiment: Myotube α7 integrin FDG assay (Burkin assay in myotubes, 96-well); settings: myotubes
[3] = tested on: β-galactosidase in CMV-LacZ C2C12 myoblasts; experiment: CMV-LacZ secondary screen in C2C12 myoblasts (β-Gal stabilizing assay); settings: CMV-LacZ C2C12 myoblasts
In short: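 β-Gal level was the read-out, measured in a clonal C2C12 line expressing LacZ from a CMV promoter. Dose-response curves used six concentrations, 0.5 μM up to 40 μM, with duplicate points.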

[4] = tested on: β-galactosidase in CMV-LacZ C2C12 myotubes; experiment: CMV-LacZ secondary screen in C2C12 myotubes (β-Gal stabilizing assay); settings: C2C12 CMV-LacZ myotubes, fold relative to DMSO
In short: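 β-gal stabilization was measured in C2C12 myoblasts or myotubes stably transfected with a CMV-driven LacZ construct, using the FDG β-gal assay. Compounds were tested in dose-response at 0.5, 1, 5, 10, 20 and 40 μM, with two replicates per point.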

SMILES	Burkin Assay in Myoblasts, signal relative to DMSO ([1]; 0.5 uM)	Burkin Assay in Myoblasts, signal relative to DMSO ([1]; 1 uM)	Burkin Assay in Myoblasts, signal relative to DMSO ([1]; 5 uM)	Burkin Assay in Myoblasts, signal relative to DMSO ([1]; 10 uM)	Burkin Assay in Myoblasts, signal relative to DMSO ([1]; 20 uM)	Burkin Assay in Myoblasts, signal relative to DMSO ([1]; 40 uM)	Burkin Assay in Myotubes, α7 integrin LacZ reporter signal relative to DMSO ([2]; 0.5 uM)	Burkin Assay in Myotubes, α7 integrin LacZ reporter signal relative to DMSO ([2]; 1 uM)	Burkin Assay in Myotubes, α7 integrin LacZ reporter signal relative to DMSO ([2]; 5 uM)	Burkin Assay in Myotubes, α7 integrin LacZ reporter signal relative to DMSO ([2]; 10 uM)	Burkin Assay in Myotubes, α7 integrin LacZ reporter signal relative to DMSO ([2]; 20 uM)	Burkin Assay in Myotubes, α7 integrin LacZ reporter signal relative to DMSO ([2]; 40 uM)	CMV-LACZ in Myoblasts (β-galactosidase activity relative to DMSO) ([3]; 0.5 uM)	CMV-LACZ in Myoblasts (β-galactosidase activity relative to DMSO) ([3]; 1 uM)	CMV-LACZ in Myoblasts (β-galactosidase activity relative to DMSO) ([3]; 5 uM)	CMV-LACZ in Myoblasts (β-galactosidase activity relative to DMSO) ([3]; 10 uM)	CMV-LACZ in Myoblasts (β-galactosidase activity relative to DMSO) ([3]; 20 uM)	CMV-LACZ in Myoblasts (β-galactosidase activity relative to DMSO) ([3]; 40 uM)	CMV-LACZ in Myotubes, signal relative to DMSO ([4]; 0.5 uM)	CMV-LACZ in Myotubes, signal relative to DMSO ([4]; 1 uM)	further results
Cn1c(-c2ccccc2)cc2ccccc21 [MLS001215074-01]	1.023	0.9004	0.9431	0.9738	0.7339	0.5974	0.7886	0.8307	1.05	1.132	0.7505	0.8488	0.7877	0.7800	1.1754	1.0294	1.1277	1.1432	0.8752	0.9238	CMV-LACZ in Myotubes, signal relative to DMSO ([4]; 5 uM): 0.8364; CMV-LACZ in Myotubes, signal relative to DMSO ([4]; 10 uM): 0.8583; CMV-LACZ in Myotubes, signal relative to DMSO ([4]; 20 uM): 0.8700; CMV-LACZ in Myotubes, signal relative to DMSO ([4]; 40 uM): 0.9930
Cc1nc(Nc2ccccc2F)c2oc3ccccc3c2n1 [MLS001215123-01]	1.075	0.9708	1.1241	1.155	0.665	0.5252	0.9466	0.901	1.049	1.137	0.6938	0.816	1.0530	0.8837	1.0888	1.1943	1.2639	1.0098	1.1657	1.1457	CMV-LACZ in Myotubes, signal relative to DMSO ([4]; 5 uM): 1.1153; CMV-LACZ in Myotubes, signal relative to DMSO ([4]; 10 uM): 1.2929; CMV-LACZ in Myotubes, signal relative to DMSO ([4]; 20 uM): 1.0710; CMV-LACZ in Myotubes, signal relative to DMSO ([4]; 40 uM): 1.1030
CCOc1ccccc1Nc1cc2n(c(=O)n1)CCc1cc(OC)c(OC)cc1-2 [MLS001215294-01]	0.9783	1.003	0.7641	0.6141	0.2025	0.2046	1.047	1.106	0.8935	0.8216	0.8062	0.8079	1.2983	1.2817	0.8138	1.3412	0.3302	0.4116	0.8838	1.0800	CMV-LACZ in Myotubes, signal relative to DMSO ([4]; 5 uM): 1.1438; CMV-LACZ in Myotubes, signal relative to DMSO ([4]; 10 uM): 1.4324; CMV-LACZ in Myotubes, signal relative to DMSO ([4]; 20 uM): 1.2800; CMV-LACZ in Myotubes, signal relative to DMSO ([4]; 40 uM): 1.4470
O=C(CSc1nnc(COc2ccc(Br)cc2)o1)NC1CCCCC1 [MLS001215357-01]	1.037	0.93	0.8837	1.489	0.9203	0.5327	0.9366	0.8137	0.9057	0.884	0.756	0.6929	1.1560	1.2686	0.8575	1.0378	1.2467	0.4719	1.1547	1.1400	CMV-LACZ in Myotubes, signal relative to DMSO ([4]; 5 uM): 1.1407; CMV-LACZ in Myotubes, signal relative to DMSO ([4]; 10 uM): 1.1192; CMV-LACZ in Myotubes, signal relative to DMSO ([4]; 20 uM): 1.3622; CMV-LACZ in Myotubes, signal relative to DMSO ([4]; 40 uM): 1.0667
CCCCNc1nnc(Cc2ccc(Cl)cc2)c(=O)[nH]1 [MLS001215795-01]	1.143	1.207	0.932	0.7776	0.741	0.7187	1.291	1.191	0.863	0.9107	0.9147	0.8873	0.8003	1.1375	1.0974	0.8628	0.8196	0.8256	0.9363	1.0207	CMV-LACZ in Myotubes, signal relative to DMSO ([4]; 5 uM): 0.9309; CMV-LACZ in Myotubes, signal relative to DMSO ([4]; 10 uM): 1.0250; CMV-LACZ in Myotubes, signal relative to DMSO ([4]; 20 uM): 1.3929; CMV-LACZ in Myotubes, signal relative to DMSO ([4]; 40 uM): 1.1035
CC(C)(C)Nc1nc(-c2ccc3c(c2)CCN3C(=O)C2CC2)cs1 [MLS001216939-01]	1.123	1.2827	1.111	0.9828	0.8633	0.7865	1.193	1.185	1.07	1.06	0.8529	0.4743	1.0991	1.1134	1.0913	0.9452	1.1863	1.0644	1.0311	0.9748	CMV-LACZ in Myotubes, signal relative to DMSO ([4]; 5 uM): 1.1826; CMV-LACZ in Myotubes, signal relative to DMSO ([4]; 10 uM): 1.2568; CMV-LACZ in Myotubes, signal relative to DMSO ([4]; 20 uM): 1.1518; CMV-LACZ in Myotubes, signal relative to DMSO ([4]; 40 uM): 0.9659
